Patent US12221436B2, “Anthranilamides, their use as insecticide and processes for preparing the same” (PI INDUSTRIES LTD., priority 2018, dated 2025)

Experiments:
Assay type in all cases: in vivo
[1] = test system: Myzus persicae; test: Example E: Myzus persicae, leaf dip method (capsicum leaves); settings: foliar, third instar nymphs, 72 h after release, dead and moribund combined, read-out: percent mortality
Experimental: (§1) Test solutions were prepared according to the procedure described herein below (500 PPM):
(§2) • 1. Eppendorf Vortex mixer (ThermoMixer C) and 1.5 mL Eppendorf tubes • 2. Beaker—100 mL • 3. Micro-pipette Reagents: • 1. Surfactant Solution • 2. De-mineralized (DM) Water Procedure: • 1. Weigh 10 mg of the compound of the present invention to be tested in an Eppendorf Tube. • 2. Add 200 mg of the Surfactant Solution into the tube. • 3. Fix the tube in Eppendorf Vortex mixer and start vortexing at 2000 rpm. • 4. Mix on Vortex mixer for 30 min. After 30 min, observe the sample over a microscope at 400× resolution. • 5. Add 1.0 mL DM water into the tube, close the cap, shake the tube thoroughly and transfer the contents, along with the beads, into a beaker. • 6. To rinse the tube, add another 1.0 mL of DM water into the tube, close the cap, shake well and transfer this into the same beaker. • 7. Repeat […] one more time so that the tube is rinsed well and all the compound of the present invention is transferred to the beaker. • 8. Add 16.8 mL of DM water into the beaker and stir well. • 9. Immediately use this sample for biological testing. • 10. Further dilutions can be prepared by taking appropriate quantity of the aliquot of Step 8, immediately after stirring, and diluting as per requirement. The sample solution must be well mixed just before biological testing.
Leaf dip method was used for screening, wherein the required quantity of the compounds were weighed and dissolved in the test solution into the tube and vortex at 2000 rpm with Zirconia beads for 90 min and for proper mixing, then mixed with 0.01% Triton-X solution to get the desired test concentration. Capsicum leaves were dipped in the solution for 10 seconds, shade dried for 20 min and then leaves were kept in glass units with petiole dipped in water. Known numbers of third instar nymphs were released and were kept in the plant growth chamber at a temperature of 25° C. and Relative Humidity of 70%. Observations on dead, moribund and live nymphs were recorded at 72 h after the release. Percent mortality was calculated by combining dead and moribund nymphs. The following compound numbers

[2] = test system: Plutella xylostella; test: whole plant or invertebrate; settings: in Brassica oleracea, foliar, second instar larvae, 72 h after release, dead and moribund combined, read-out: percent mortality
Experimental: as §1, §2
Leaf dip method was used for screening, wherein the required quantity of the compounds were weighed and dissolved in the test solution into the tube and vortex at 2000 rpm with Zirconia beads for 90 min for proper mixing, then mixed with 0.01% Triton-X solution to get the desired test concentration. and Cabbage leaves were dipped in the solution for 10 seconds, shade dried for 20 min and then transferred to bioassay trays. Single second instar larvae were released into each cell and the tray was covered with lid. The bio-assay trays were kept under laboratory conditions at a temperature of 25° C. and Relative Humidity of 70%. Observations on dead, moribund and live larvae were recorded at 72 h after the release. Percent mortality was calculated by combining dead and moribund larvae. The following compound numbers

[3] = test system: Helicoverpa armigera; test: Example A: Helicoverpa armigera, diet incorporation method; settings: third instar larvae, 96 h after release, dead and moribund combined, read-out: percent mortality
Experimental: as §1, §2
(§3) Diet incorporation method was used, in which the semi-synthetic diet was incorporated into the test solution when the temperature is approximately 50° C. in the bioassay containers and stirred thoroughly for properly mixing and then was allowed to cool for 30 min. The solidified diet was cut into equal pieces, and then each piece was transferred in one cell in Bio-assay trays. A single third instar starved larva was released into each of these cells of bioassay trays and the tray was covered with the lid. The bio-assay trays were kept under laboratory conditions at a temperature of 25° C. and Relative Humidity of 70%. Observations on dead, moribund and live larvae were recorded at 96 h after the release of larvae. Percent mortality was calculated by combining dead and moribund larvae. The following compound numbers

[4] = test system: Spodoptera litura; test: Example B: Spodoptera litura, diet incorporation method; settings: third instar larvae, 96 h after release, dead and moribund combined, read-out: percent mortality
Experimental: as §1, §2
as §3, with “which” for “which the”, “solutions” for “solution”

Compound	mortality at 300 ppm [1] [%]	mortality at 300 ppm [2] [%]	mortality at 300 ppm [3] [%]	mortality at 300 ppm [4] [%]
CC(C)(C)NC(=O)c1cc(Cl)cc(Br)c1NC(=O)c1cc(OC2CSC2)nn1-c1ncccc1Cl [Compound 45, N-(2-bromo-6-(tert-butylcarbamoyl)-4-chlorophenyl)-1-(3-chloropyridin-2-yl)-3-(thietan-3-yloxy)-1H-pyrazole-5-carboxamide]	> 50			
Cc1cc2ccnn2c(C(=O)NCC2CC2)c1NC(=O)c1cc(N2CC(F)(F)C2)nn1-c1ncccc1Cl [Compound 78, 6-(1-(3-chloropyridin-2-yl)-3-(3,3-difluoroazetidin-1-yl)-1H-pyrazole-5-carboxamido)-N-(cyclopropylmethyl)-5-methylpyrazolo[1,5-a]pyridine-7-carboxamide]		> 70	> 70	> 70
CNC(=O)c1c(NC(=O)c2cc(N3CC(F)(F)C3)nn2-c2ncccc2Cl)c(C)cc2ccnn12 [Compound 79, 6-(1-(3-chloropyridin-2-yl)-3-(3,3-difluoroazetidin-1-yl)-1H-pyrazole-5-carboxamido)-N,5-dimethylpyrazolo[1,5-a]pyridine-7-carboxamide]		> 70	> 70	> 70
Cc1cc2ccnn2c(C(=O)NCC2CC2)c1NC(=O)c1cc(OC2CSC2)nn1-c1ncccc1Cl [Compound 80, 6-(1-(3-chloropyridin-2-yl)-3-(thietan-3-yloxy)-1H-pyrazole-5-carboxamido)-N-(cyclopropylmethyl)-5-methylpyrazolo[1,5-a]pyridine-7-carboxamide]		> 70	> 70	> 70
CCNC(=O)c1c(NC(=O)c2cc(N3CC(F)(F)C3)nn2-c2ncccc2Cl)c(C)cc2ccnn12 [Compound 84, 6-(1-(3-chloropyridin-2-yl)-3-(3,3-difluoroazetidin-1-yl)-1H-pyrazole-5-carboxamido)-N-ethyl-5-methylpyrazolo[1,5-a]pyridine-7-carboxamide]				> 70
CONC(=O)c1c(NC(=O)c2cc(N3CC(F)(F)C3)nn2-c2ncccc2Cl)c(C)cc2ccnn12 [Compound 85, 6-(1-(3-chloropyridin-2-yl)-3-(3,3-difluoroazetidin-1-yl)-1H-pyrazole-5-carboxamido)-N-methoxy-5-methylpyrazolo[1,5-a]pyridine-7-carboxamide]		> 70	> 70	
C=CCNC(=O)c1c(NC(=O)c2cc(N3CC(F)(F)C3)nn2-c2ncccc2Cl)c(C)cc2ccnn12 [Compound 87, N-allyl-6-(1-(3-chloropyridin-2-yl)-3-(3,3-difluoroazetidin-1-yl)-1H-pyrazole-5-carboxamido)-5-methylpyrazolo[1,5-a]pyridine-7-carboxamide]				> 70
CONC(=O)c1cc(Cl)cc(Br)c1NC(=O)c1cc(OC2CSC2)nn1-c1ncccc1Cl [Compound 91, N-(2-bromo-4-chloro-6-(methoxycarbamoyl)phenyl)-1-(3-chloropyridin-2-yl)-3-(thietan-3-yloxy)-1H-pyrazole-5-carboxamide]	> 50			
C=CCNC(=O)c1cc(Cl)cc(Br)c1NC(=O)c1cc(OC2CSC2)nn1-c1ncccc1Cl [Compound 92, N-(2-(allylcarbamoyl)-6-bromo-4-chlorophenyl)-1-(3-chloropyridin-2-yl)-3-(thietan-3-yloxy)-1H-pyrazole-5-carboxamide]	> 50			
C=CCNC(=O)c1cc(Cl)cc(C)c1NC(=O)c1cc(OC2CSC2)nn1-c1ncccc1Cl [Compound 98, N-(2-(allylcarbamoyl)-4-chloro-6-methylphenyl)-1-(3-chloropyridin-2-yl)-3-(thietan-3-yloxy)-1H-pyrazole-5-carboxamide]	> 50			
CCCNC(=O)c1c(NC(=O)c2cc(OC3CSC3)nn2-c2ncccc2Cl)c(C)cc2ccnn12 [Compound 108, 6-(1-(3-chloropyridin-2-yl)-3-(thietan-3-yloxy)-1H-pyrazole-5-carboxamido)-5-methyl-N-propylpyrazolo[1,5-a]pyridine-7-carboxamide]		> 70		
Cc1cc(Cl)cc(C(=O)NC(C)C)c1NC(=O)c1cc(OC2C[S+]([O-])C2)nn1-c1ncccc1Cl (stereo not drawn) [Compound 117, N-(4-chloro-2-(isopropylcarbamoyl)-6-methylphenyl)-1-(3-chloropyridin-2-yl)-3-((1-oxidothietan-3-yl)oxy)-1H-pyrazole-5-carboxamide]	> 50			
Cc1cc(Cl)cc(C(=O)NC2CC2)c1NC(=O)c1cc(OC2C[S+]([O-])C2)nn1-c1ncccc1Cl (stereo not drawn) [Compound 128, N-(4-chloro-2-(cyclopropylcarbamoyl)-6-methylphenyl)-1-(3-chloropyridin-2-yl)-3-((1-oxidothietan-3-yl)oxy)-1H-pyrazole-5-carboxamide]	> 50			
Cc1cc(Cl)cc(C(=O)NCC2CC2)c1NC(=O)c1cc(OC2C[S+]([O-])C2)nn1-c1ncccc1Cl (stereo not drawn) [Compound 129, N-(4-chloro-2-((cyclopropylmethyl)carbamoyl)-6-methylphenyl)-1-(3-chloropyridin-2-yl)-3-((1-oxidothietan-3-yl)oxy)-1H-pyrazole-5-carboxamide]	> 50			
O=C(NCC(F)(F)F)c1cc(Cl)cc(Cl)c1NC(=O)c1cc(OC2CSC2)nn1-c1ncccc1Cl [Compound 132, 1-(3-chloropyridin-2-yl)-N-(2,4-dichloro-6-((2,2,2-trifluoroethyl)carbamoyl)phenyl)-3-(thietan-3-yloxy)-1H-pyrazole-5-carboxamide]	> 50			
CCNC(=O)c1c(NC(=O)c2cc(OC3CSC3)nn2-c2ncccc2Cl)c(C)cc2ccnn12 [Compound 137, 6-(1-(3-chloropyridin-2-yl)-3-(thietan-3-yloxy)-1H-pyrazole-5-carboxamido)-N-ethyl-5-methylpyrazolo[1,5-a]pyridine-7-carboxamide]		> 70		
Cc1cc2ccnn2c(C(=O)NC2CC2)c1NC(=O)c1cc(OC2CSC2)nn1-c1ncccc1Cl [Compound 138, 6-(1-(3-chloropyridin-2-yl)-3-(thietan-3-yloxy)-1H-pyrazole-5-carboxamido)-N-cyclopropyl-5-methylpyrazolo[1,5-a]pyridine-7-carboxamide]				> 70
Cc1cc2ccnn2c(C(=O)NC(C)C2CC2)c1NC(=O)c1cc(OC2CSC2)nn1-c1ncccc1Cl (stereo not drawn) [Compound 139, 6-(1-(3-chloropyridin-2-yl)-3-(thietan-3-yloxy)-1H-pyrazole-5-carboxamido)-N-(1-cyclopropylethyl)-5-methylpyrazolo[1,5-a]pyridine-7-carboxamide]			> 70	> 70
COCCNC(=O)c1c(NC(=O)c2cc(OC3CSC3)nn2-c2ncccc2Cl)c(C)cc2ccnn12 [Compound 156, 6-(1-(3-chloropyridin-2-yl)-3-(thietan-3-yloxy)-1H-pyrazole-5-carboxamido)-N-(2-methoxyethyl)-5-methylpyrazolo[1,5-a]pyridine-7-carboxamide]			> 70	
